What was measured:
EGFR and erbB2 kinases = settings: Rusnak et al., 2001b; Xia et al., 2002; cited from earlier work
[1] = system: tumor cells overexpressing EGFR or erbB2; settings: Rusnak et al., 2001b; Xia et al., 2002; cited from earlier work
[2] = system: MCF-7 human breast cancer cells; assay: Cell growth, MTT tetrazolium dye assay; assay type: cell-based; settings: 1-10 uM
Protocol: (§1) The effect of a combination of lapatanib with a Bcl-2 inhibitor (HA14-1) on the growth of MCF-7 human breast cancer cells, a HER-2/neu transfected MCF-7 cell line and a tamoxifen (TAM) resistant MCF-7 cell line was examined. Cell growth was determined using the MTT tetrazolium dye assay. Cells were dosed with Lapatinib and HA14-1 as monotherapies.

[3] = system: HER-2/neu transfected MCF-7 cell line; assay: Cell growth, MTT tetrazolium dye assay; assay type: cell-based, human; settings: 1-10 uM
Protocol: as §1

[4] = system: tamoxifen (TAM) resistant MCF-7 cell line; assay: Cell growth, MTT tetrazolium dye assay; assay type: cell-based, human; settings: 1-10 uM
Protocol: as §1

BT474 tumors = assay: BT474 vs. Lapatinib and Docetaxel Combination (mice with BT474 tumors); assay type: in vivo
Protocol: Mice with BT474 tumors were administered lapatinib alone (200 and 100 mg/kg; SID×21 Days, or 2 days and 1 day before docetaxel) and in combination with docetaxel (25 and 50 mg/kg IP, once weekly×3 weeks).
In the first experiment there were no deaths, and in the second experiment there was one death in a group of eight mice receiving docetaxel (25 mg/kg) and lapatinib (200 mg/kg×21 days). All surviving mice rapidly regained body weight when dosing was completed. The treatment groups and results follow.

CS(=O)(=O)CCNCc1ccc(-c2ccc3ncnc(Nc4ccc(OCc5cccc(F)c5)c(Cl)c4)c3c2)o1 [GW572016, N-{3-chloro-4-[(3-fluorobenzyl)oxy]phenyl}-6-[5-({[2-(methanesulphonyl)ethyl]amino}methyl)-2-furyl]-4-quinazolinamine]
Kinase inhibition in human xenograft studies (EGFR and erbB2 kinases): dose-dependent kinase inhibition
Selectivity of tumor cell inhibition [1]: selectively inhibits tumor cells overexpressing EGFR or erbB2

CCOC(=O)C1=C(N)Oc2ccc(Br)cc2C1C(C#N)C(=O)OCC (stereo not drawn) [HA14-1, ethyl [2-amino-6-bromo-4-(1-cyano-2-ethoxy-2oxoethyl)]4H-chromene-3-carboxylate, reference compound]
Cell growth inhibition, monotherapy [2]: dose-dependent growth inhibition
Cell growth inhibition, monotherapy [3]: dose-dependent growth inhibition
Cell growth inhibition, monotherapy [4]: dose-dependent growth inhibition

CC(=O)O[C@@]12CO[C@@H]1C[C@H](O)[C@@]1(C)C(=O)[C@H](O)C3=C(C)[C@@H](OC(=O)[C@H](O)[C@@H](NC(=O)OC(C)(C)C)c4ccccc4)C[C@@](O)([C@@H](OC(=O)c4ccccc4)[C@H]21)C3(C)C [docetaxel, (2R,3S)-N-carboxy-3-phenylisoserine,N-tert-butyl ester, 13-ester with 5β-20-epoxy-1,2α,4,7β,10β,13α-hexahydroxytax-11-en-9-one 4-acetate 2-benzoate, trihydrate]
Body weight (BT474 tumors; 25 and 50 mg/kg, after 3 weekly doses, both experiments): caused weight loss
% Inhibition (BT474 tumors; Tax-25 (25 mg/kg IP), Days 3, 10, 17): 77%
% Inhibition (BT474 tumors; Tax-50 (50 mg/kg IP), Days 3, 10, 17): 98%
Efficacy against BT474 tumors (in words) (BT474 tumors; docetaxel at 50 mg/kg, both experiments): highly effective

CS(=O)(=O)CCNCc1ccc(-c2ccc3ncnc(Nc4ccc(OCc5cccc(F)c5)c(Cl)c4)c3c2)o1.Cc1ccc(S(=O)(=O)O)cc1 [lapatinib, N-{3-Chloro-4-[(3-fluorobenzyl)oxy]phenyl}-6-[5-({[2-(methanesulphonyl)ethyl]amino}methyl)-2-furyl]-4-quinazolinamine ditosylate monhydrate]
Cell growth inhibition, monotherapy [2]: dose-dependent growth inhibition
% Inhibition (BT474 tumors; GW016-100 (100 mg/kg), sid × 21 days): 79%
% Inhibition (BT474 tumors; GW016-200 (200 mg/kg), sid × 21 Days): 102%
% Inhibition (BT474 tumors; GW016-200, twice weekly on consecutive days × 3 weeks): 58%
Cell growth inhibition, monotherapy [3]: dose-dependent growth inhibition
Cell growth inhibition, monotherapy [4]: dose-dependent growth inhibition

— US20090317383A1, “CANCER TREATMENT METHOD” (priority 2004, published 2009)
